Test systems include COLO 205; DMS-273; EKVX; HCT-116; HCT-15; HL-60; HOP-62; K562; NCI-H23; SK-MEL-28; SK-OV-3; SNB-75; UACC-257; HOP-92; Hs-578T; MDA-MB-435; NCI-H226; PC-3; SK-MEL-5; T47D.
What all share (assay): DTP human tumour cell line panel, 48 h

SMILES strings stand for the structures.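 Briefly, cells in 96-well plates were exposed to five compound concentrations for 48 h, and endpoints were estimated by linear interpolation. GI50 marks 50% less growth.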 Calls of active or inactive are those of the source. No stated cut-off is given here; in the data, active = GI50 up to about 1.1 µM and inactive = higher.

As a reminder, the GI50 is the concentration that inhibits growth by half. With `COc1cc(-c2cc(O)c3ccccc3n2)cc(OC)c1OC`, the GI50 in the test with COLO 205 is > 75 µM (inactive); with DMS-273, > 75 µM (inactive); with EKVX, > 75 µM (inactive); in the test on HCT-116 it was > 75 µM (inactive); in the test on HCT-15 it was above 75 µM; in the test with HL-60, > 7.5 µM (inactive). Moreover, the GI50 is > 75 µM (inactive) in the test on HOP-62; > 75 µM (inactive) with K562; > 75 µM (inactive) in the test on NCI-H23; > 75 µM (inactive) in the test with SK-MEL-28; > 75 µM (inactive) with SK-OV-3; 50.5 µM (inactive) with SNB-75. Further, the GI50 in the test on UACC-257 was > 75 µM (inactive).

Regarding `CCOc1ccccc1/C=C(/C#N)C(N)=O`, the GI50 in the test with COLO 205 is > 100 µM (inactive); in the test with EKVX, > 100 µM (inactive); in the test on HCT-116, 78.3 µM (inactive); with HCT-15, 59 µM; in the test on HL-60, 21.6 µM (inactive); in the test on HOP-62, > 100 µM (inactive). Also, the GI50 in the test on HOP-92 is > 100 µM (inactive); in the test with Hs-578T, > 100 µM (inactive); in the test with K562, 36.2 µM (inactive); with MDA-MB-435 it was 18.2 µM (inactive); in the test on NCI-H226, > 100 µM (inactive); in the test on NCI-H23, > 100 µM (inactive). Besides, the GI50 in the test with PC-3 is > 100 µM (inactive); in the test with SK-MEL-28, > 100 µM (inactive); in the test with SK-MEL-5 it was 78.3 µM (inactive); with SK-OV-3 it was > 100 µM (inactive); in the test with SNB-75 it was > 100 µM (inactive); with T47D, > 100 µM (inactive). The GI50 in the test with UACC-257 is > 100 µM (inactive).

On to `CC[C@@]1(O)C(=O)OCc2c1cc1n(c2=O)Cc2c-1nc1ccc(N)cc1c2CC[Si](C)(C)C`, for which the GI50 in the test with COLO 205 was < 0.0164 µM (active); with EKVX, < 0.0212 µM (active); with HCT-116, < 0.01 µM (active); in the test with HCT-15, 0.0153 µM; with HL-60, < 0.01 µM (active); with HOP-62, < 0.01 µM (active). Besides, the GI50 in the test with HOP-92 was < 0.025 µM (active); in the test on Hs-578T, 0.134 µM (active); with K562 it was < 0.01 µM (active); with MDA-MB-435, < 0.01 µM (active); in the test with NCI-H226 it was < 0.01 µM (active); in the test with NCI-H23 it was < 0.01 µM (active). Further, the GI50 was < 0.0229 µM (active) in the test on PC-3; 0.0227 µM (active) with SK-MEL-28; < 0.01 µM (active) in the test with SK-MEL-5; < 0.01 µM (active) in the test with SK-OV-3; < 0.01 µM (active) in the test on SNB-75; < 0.01 µM (active) in the test on T47D. Further, the GI50 in the test on UACC-257 is < 0.01 µM (active).

With `O=C(C#Cc1ccccc1)N1CCCCC1`, the GI50 in the test with COLO 205 is > 100 µM (inactive); with EKVX, 63.2 µM (inactive); with HCT-116, 16.8 µM (inactive); in the test with HCT-15 it was 49.9 µM; in the test on HL-60 it was 21.9 µM (inactive); in the test on HOP-62, > 100 µM (inactive). For the same compound, the GI50 in the test with HOP-92 is > 100 µM (inactive); in the test with Hs-578T, > 100 µM (inactive); with K562 it was 73.6 µM (inactive); with MDA-MB-435, 63.5 µM (inactive); in the test on NCI-H226, > 100 µM (inactive); in the test with NCI-H23 it was 45.3 µM (inactive). Moreover, the GI50 in the test on PC-3 was 77.4 µM (inactive); in the test on SK-MEL-28, > 100 µM (inactive); in the test with SK-MEL-5, 56.4 µM (inactive); in the test with SK-OV-3, > 100 µM (inactive); in the test with SNB-75, > 100 µM (inactive); in the test on T47D it was 52.6 µM (inactive). For the same compound, the GI50 in the test with UACC-257 is > 100 µM (inactive).

As to `CC(O)C1CC1(CO)CNc1cc(Cl)nc(N)n1` (stereo not drawn), the GI50 in the test on COLO 205 was > 100 µM (inactive); in the test on EKVX, > 100 µM (inactive); with HCT-116, > 100 µM (inactive); in the test with HCT-15, above 100 µM; in the test with HL-60 it was > 100 µM (inactive); with HOP-62 it was > 100 µM (inactive). Also, the GI50 in the test on HOP-92, in the test on Hs-578T, in the test on K562, in the test with MDA-MB-435, in the test with NCI-H226 and in the test with NCI-H23 was > 100 µM (inactive) in each case. The GI50 in the test on PC-3, in the test with SK-MEL-28, in the test on SK-MEL-5, with SK-OV-3, with SNB-75 and in the test with T47D was > 100 µM (inactive) each time. Further, in the test on UACC-257, the GI50 was > 100 µM (inactive).

With `CC1CCC(C(C)C)C(O[C@@H]2OC(=O)C[C@@H]2Sc2ccccc2)C1` (stereo partly drawn), the GI50 in the test on COLO 205 was 18.5 µM (inactive); with DMS-273, 18.4 µM (inactive); in the test on EKVX, 34 µM (inactive); in the test on HCT-116, 25.9 µM (inactive); with HCT-15, 19.5 µM; with HL-60, 18.2 µM (inactive). In addition, the GI50 in the test on HOP-62 is 32.1 µM (inactive); in the test with K562, 19.1 µM (inactive); in the test on NCI-H23, 26.2 µM (inactive); in the test with SK-MEL-28 it was 22.3 µM (inactive); in the test with SK-MEL-5, 16.2 µM (inactive); in the test with SK-OV-3, 49.8 µM (inactive). For the same compound, the GI50 is 33.3 µM (inactive) in the test with SNB-75 and 16.3 µM (inactive) in the test with UACC-257.

The values are drawn from ChEMBL document CHEMBL1201862, “PubChem BioAssay data set” (2004).
